The values that follow come from patent US20150051191A1, “TREATMENT OF ALCOHOLISM USING IBUDILAST” (MEDICINOVA, INC., priority 2013, published 2015).

The conditions of data set [1]: in vivo; cited from earlier work.
The subject of data set [2] is high-alcohol-drinking (HAD1) rats. Briefly: voluntary ethanol consumption in high-alcohol-drinking (HAD1) rats. It counts as in vivo, rat. On the procedure:
(§1) The ability of ibudilast (MN-166) to decrease voluntary ethanol consumption, under blind testing conditions, in selectively-bred alcohol-preferring (P) and high-alcohol-drinking (HAD1) rats and in a mouse model of ethanol dependence was examined.
(§2) To perform the study, adult male P and HAD1 rats were randomly assigned to receive one of the following four doses of ibudilast—0 mg/Kg, 3 mg/Kg, 6 mg/Kg, or 9 mg/Kg with eight rats assigned to each dose. Each dosing group was balanced to average a 2 h/day ethanol (15% v/v) intake. Water was concurrently available to the rats and Mazola corn oil was used as the vehicle.
(§3) The study was divided into four test phases. In the maintenance test phase rats in the treatment group were injected ibudilast subcutaneously (2 mL/kg s.c.), using standard solutions that deliver 3 mg/Kg, 6 mg/Kg or 9 mg/Kg of ibudilast, 60 min before each ethanol test session and the same dose of ibudilast was administered subcutaneously to the rats 8 hours later. Rats in the control group, however, are administered 2 mL/Kg Mazola corn oil subcutaneously. This protocol was carried out for 4 consecutive days. Following the maintenance test phase, is a two week no drug recovery phase during which rats are permitted access to ethanol and the amount of ethanol consumed by the rats was measured.
(§4) The recovery phase is followed by a two week forced ethanol abstinence phase. Following forced abstinence, the effects of ibudilast on ethanol drinking were examined by re-introducing ethanol to rats for a period of 5 consecutive days (i.e., the Relapse Test phase). Each animal received the same dose of ibudilast during maintenance and relapse test phases.

Data set [3] has as its system alcohol-preferring (P) rats. The data set is described as follows: voluntary ethanol consumption in alcohol-preferring (P) rats. The following applies: for ethanol drinking relative to controls: Relapse Test phase, p<0.05. It counts as in vivo, rat. On the procedure: as §1, §2, §3, §4
Another data set has as its system C57BL/6J mice. The data set is described as follows: mouse model of ethanol dependence, chronic intermittent ethanol (CIE) exposure. It counts as in vivo. The conditions noted are these: for ethanol intake of alcohol dependent mice compared with control group counterparts / reduction of ethanol intake, alcohol dependent versus control mice: Test Cycle 9; for ethanol consumption relative to vehicle: Test Cycle 8. On the procedure:
Briefly, mice were divided into test (ethanol dependent) and control (non-ethanol dependent) groups. Mice in the former group were exposed to chronic intermittent ethanol (CIE) vapor (16 hr/day×4 days), and then forced to abstain from alcohol for 72 hours. Mice were then permitted access to ethanol for 2 h/day for a 5-day test period. This pattern of weekly CIE exposures followed by 5-day test periods was repeated for 9 cycles. Mice in the control group were treated in the same manner, except these animals were exposed to air rather than ethanol vapors. Mice from both groups were further divided into four sub-groups with animals receiving 0 mg/Kg, 3 mg/Kg, 6 mg/Kg or 12 mg/Kg dose of ibudilast. In a separate study, adult male C57BL/6J mice were used to evaluate ibudilast as a therapeutic for the treatment of alcohol dependence. Two groups of mice were used for the study. Mice in the first group were trained to drink ethanol using a 2 h/day free-choice (15% v/v ethanol) drinking procedure (ethanol dependent (EtOH) mice), while mice in the second group were provided water and served a control (ethanol nondependent (CTL)) mice. Both the ethanol dependent and ethanol non-dependent groups had equal number of mice (N=37-38/group). Mice in the alcohol dependent group were then exposed to chronic intermittent ethanol (CIE) vapors for 16 hr/day over four days. After a 72 hours forced abstinence period, the ethanol dependent mice were again permitted access to ethanol for 2 hours each day over a 5 consecutive test days. This pattern of chronic intermittent ethanol vapor exposure for four consecutive days followed by forced abstinence and a five day ethanol access test period was repeated for 9 cycles. […] Both control and ethanol dependent mice received subcutaneous (s.c.) injections of the vehicle at 9 hours and 1 hour prior to the start of daily drinking sessions during Test Cycles 4, 5 and 6 to acclimate the animals to handling and administration of injections. At the end of test cycle 6, mice in the ethanol dependent group and the control group were separated into four sub-groups with animals receiving one of four doses of ibudilast—0 mg/Kg, 3 mg/Kg, 6 mg/Kg or 12 mg/Kg during Test Cycles 7 and 8. Each sub-group contained 9-10 mice (N=9-10/group). The dose of ibudilast was increased during Test Cycle 9 with ethanol dependent and control mice receiving one of the following four doses of ibudilast—0 mg/Kg, 6 mg/Kg, 12 mg/Kg, or 18 mg/Kg. Thus, mice previously receiving a dose of 3 mg were administered ibudilast at a dose of 18 mg/Kg during Test Cycle 9.

Where [4] appears, read: 4-day maintenance test-phase, each dose (3, 6, 9 mg/Kg), p<=0.001.
Setting [5] is: 5-day Relapse Test phase after two week forced abstinence.
[6] abbreviates: especially at the 9 mg/Kg dose, effect diminished over the 5-day test phase.
[7] abbreviates: maintenance test phase, 4 days, ibudilast s.c. 60 min before session and 8 hours later, 2 h/day ethanol 15% v/v.
Setting [8] is: relapse test phase, data not shown.

As to `OCCOCCN1CCN(C2=Nc3ccccc3Sc3ccccc32)CC1` [quetiapine], the “selective reduction of ethanol drinking” value in data set [1] was “do not selectively reduce ethanol drinking”.
`CC[C@@H](C(N)=O)N1CCCC1=O` [levatiracetam]: in data set [1], the “selective reduction of ethanol drinking” value was “do not selectively reduce ethanol drinking”.
On to `CC(C)C(=O)c1c(C(C)C)nn2ccccc12` [ibudilast, Ibudilast], for which the “ethanol intake relative to vehicle-injected controls” value in data set [2] (setting [4]) and in data set [3] (setting [4]) was “reduced ethanol intake” throughout. Besides, the “reduction of ethanol intake” value in data set [2] (setting [5]) is reported as “about 50%”; in data set [2] (setting [7]), “approximately 50%”; in data set [3] (setting [5]), “about 50%”; in data set [3] (setting [7]), “approximately 50%”. The “ethanol intake compared to controls” value in data set [2] (Relapse Test phase, each test dose, p<0.05) is reported as “reduce ethanol intake compared to controls”. In addition, the 24-hour water intake entry in data set [2] (especially at the 9 mg/Kg dose) and in data set [3] (especially at the 9 mg/Kg dose) was “not water intake” throughout. In addition, the 24-hour food intake result in data set [2] (setting [6]) and in data set [3] (setting [6]) was “transitory reductions in 24-hour food intake” throughout. For the same compound, the “Dose x Day interaction of reduced ethanol intake” value in data set [2] (setting [8]) and in data set [3] (setting [8]) was “most robust on the first day” each time. Also, the “ethanol drinking relative to controls” value in data set [3] (6 mg/Kg) and in data set [3] (9 mg/Kg) was “significantly reducing ethanol drinking” each time. For the same compound, the “ethanol intake of alcohol dependent mice compared with control group counterparts” value with C57BL/6J mice (6 mg ibudilast, p<0.05) was “consumed significantly more ethanol”; in the data set with C57BL/6J mice (12 mg/Kg), “no significant difference in ethanol intake”; in the data set on C57BL/6J mice (18 mg/Kg) it was “no significant difference in ethanol intake”. In addition, the “reduction of ethanol intake, alcohol dependent versus control mice” value with C57BL/6J mice (12 mg/Kg) and with C57BL/6J mice (18 mg/Kg) was “more effective at reducing ethanol intake in alcohol dependent mice than control mice” in each case. Moreover, in the data set on C57BL/6J mice (alcohol dependent mice, 12 mg/Kg s.c., Test Cycle 7 (implied, FIG. 2)), the ethanol intake result is reported as “reduced ethanol in alcohol dependent mice”. In addition, the “ethanol consumption relative to vehicle” value is on record as “reduced ethanol consumption to a greater extent” with C57BL/6J mice (alcohol dependent mice, 12 mg/Kg, p<0.05) and “reduced ethanol consumption to a greater extent” in the data set on C57BL/6J mice (control (CTL) mice, 12 mg/Kg, p<0.05). Further, the “ethanol intake of test (ethanol dependent) mice relative to control group levels” value in the data set with C57BL/6J mice (at the higher doses) is “below those for mice in the control group”.
